The molecules below were run against T1, Serine/threonine-protein kinase Chk1 (Homo sapiens, UniProt O14757) (assay: Chk1 Enzymatic Assay). Details: pH 7.5; 30 °C.
T1 sequence (O14757 whole entry): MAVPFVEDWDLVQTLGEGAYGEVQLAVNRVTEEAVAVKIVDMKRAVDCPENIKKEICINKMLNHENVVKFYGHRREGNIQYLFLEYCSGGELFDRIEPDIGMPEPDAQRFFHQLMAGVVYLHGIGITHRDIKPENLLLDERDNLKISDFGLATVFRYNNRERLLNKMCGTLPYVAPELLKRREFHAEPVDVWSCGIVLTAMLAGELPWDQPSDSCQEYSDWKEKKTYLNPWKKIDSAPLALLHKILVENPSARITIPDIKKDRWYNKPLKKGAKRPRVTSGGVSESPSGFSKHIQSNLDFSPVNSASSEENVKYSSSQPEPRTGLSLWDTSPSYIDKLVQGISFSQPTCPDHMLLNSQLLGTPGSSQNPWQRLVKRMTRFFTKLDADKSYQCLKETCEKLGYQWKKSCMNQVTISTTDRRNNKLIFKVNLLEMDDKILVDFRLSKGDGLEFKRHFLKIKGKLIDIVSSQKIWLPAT
Experimental: Chk1 kinase activity was assayed in reaction buffer containing substrate peptide, enzyme, and inhibitor in the presence of 100uM ATP/[gamma-33P] ATP. 33P incorporation was measured using a Perkin-Elmer Trilux scintillation counter. The IC50 is the inhibitor concentration, which inhibits 50% of kinase activity that catalyzes the transfer of the terminal phosphate from 33P labeled ATP to the substrate.

IC50 [µM]	SMILES
31.8	Nc1ncnc2nc(SCC(=O)O)[nH]c12 [2-[(6-amino-9H-purin-8-yl)sulfanyl]acetic acid]
72.7	NN1C(=O)C([c-]2c(=O)[nH]c3ccc([N+](=O)[O-])cc32)=[S+]C1=S [3-amino-5-[(3Z)-5-nitro-2-oxo-2,3-dihydro-1H-indol-3-ylidene]-2-sulfanylidene-1,3-thiazolidin-4-one]
26.6	COc1ccc(Cl)cc1-c1nnc(Nc2ccc(C(=O)O)cc2)s1 [4-{[5-(5-chloro-2-methoxyphenyl)-1,3,4-thiadiazol-2-yl]amino}benzoic acid]
20.4	Cc1[nH]nc2c1C(c1ccc(O)c(O)c1)C(C#N)C(=N)O2 (stereo unspecified) [6-amino-4-(3,4-dihydroxyphenyl)-3-methyl-1H,4H-pyrano[2,3-c]pyrazole-5-carbonitrile]
20.1	Clc1cc2c(cc1CN=Nc1nnc3c(n1)[nH]c1ccccc13)OCO2 [(1E)-1-[(6-chloro-2H-1,3-benzodioxol-5-yl)methylidene]-2-{5H-[1,2,4]triazino[5,6-b]indol-3-yl}hydrazine]
15.8	NCCCNc1nc(F)c(Cl)c(C2c3ccccc3Sc3ccccc32)c1F [N-(3-aminopropyl)-5-chloro-3,6-difluoro-4-(9H-thioxanthen-9-yl)pyridin-2-amine]

Source: BindingDB's records for doi:10.1016/j.bmc.2006.03.021 (Vernalis (R&D), 2006)
